Data from US10195156B2, “Compounds and compositions for intracellular delivery of agents” (ModernaTX, Inc., priority 2015, dated 2019).

Experiments:
[1] = Encapsulation efficiency of RNA (QUANT-IT RIBOGREEN RNA assay); type: physicochemical
Procedure, shortened: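 RiboGreen fluorescence (ex ~480, em ~520 nm) measured after 15 min at 37 °C on samples at ~5 μg/mL in TE, pH 7.5, ± 2% Triton X-100 solution. After blank subtraction, free RNA is given as intact-sample signal divided by disrupted-sample signal.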

[2] = Particle size and polydispersity index of nanoparticle compositions (Zetasizer Nano ZS); type: physicochemical
Procedure, shortened: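 Zetasizer Nano ZS; samples in 1×PBS; read-out: particle size plus polydispersity index.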

[3] = pKa of nanoparticle compositions; type: physicochemical; settings: Table 1; rows without footnote mark
LDL-c = test: LDL levels in LDLr−/− mice after mRNA encoding the LDL receptor; type: in vivo, LDLR knockout mice; settings: Mus musculus; Table 7b; LDLr−/− mice, 0.5 mpk, LDLr; read-out: LDL levels lipid/untreated LDLr−/− mice 0.5 mpk, LDLr
[4] = Lipid clearance: % dose remaining in mouse liver 6 h and 24 h after administration of nanoparticle compositions; type: in vivo, CD-1 mice; settings: Table 7c
Excerpt: (§1) In contrast, hEPO expression in rats induced by administration of a nanoparticle composition including a compound according to one of formulae (I), (Ia1)-(Ia6), (Ib), (II), (IIa), (III), and (IIIa) was substantially […] than that measured for MC3. […] Table 7c and 7d show additional protein expressions and clearance data from compositions with various compounds disclosed herein as compared to with MC3.

Luc expression = Luc expression in CD-1 mice (AUC relative to MC3); type: in vivo; settings: Table 7c
Description: FIG. 15 is a graph summarizing luciferase expression levels at 6 h after administration of nanoparticle compositions containing compounds of the disclosure to CD-1 mice at a dose of 0.5 mpk. Total light flux values were acquired via body luminescent imaging (BLI) 6 h after administration. In this Figure, the numbers 1-7 and 10 refer to the compositions containing Compounds 4-10 and MC3 respectively.
as §1

[5] = Table 1, rows without footnote mark
[6] = Table 1, rows without footnote mark (lipid:DOPE:cholesterol:PEG-DMG 40:20:38.5:1.5, Luc mRNA; MC3 standard formulation)

CCCCCCCCCCCCN(CCCCCCCCCCCC)CCN(CCCCCCCCCCCC)CC(=O)N1CCN(C(=O)CN(CCCCCCCCC)CCCCCCCCC)CC1 [Compound 7, 2-((2-(Didodecylamino)ethyl)(dodecyl)amino)-1-(4-(dinonylglycyl)piperazin-1-yl)ethan-1-one]
EE (%) [1, 5]: 99.1% | PDI [2, 5]: 0.130 | Size (nm) [2, 6]: 85.1 nm | pKa [3]: 6.94 | response vs control in vivo at 0.5 mg/kg (LDL-c): 63%

CCCCCCCCCN(CCCCCCCC(=O)OC)CCC1CCN(C(=O)CN(CCCCCCCCC)CCN(CCCCCCCCC)CCCCCCCCC)CC1 [Compound 57, Methyl 8-((2-(1-(N-(2-(dinonylamino)ethyl)-N-nonylglycyl)piperidin-4-yl)ethyl)(nonyl)amino)octanoate]
% Dose Remaining 6 hr [4]: 0.88% | % Dose Remaining 24 hr [4]: 0.24% | EE (%) ([1]; Table 1b): 98.8% | PDI ([2]; Table 1b): 0.23 | Size (nm) ([2]; Table 1b): 101.9 nm | AUC (p/s*h) (Luc expression): 1.21E+11 p/s*h

CCCCCCCCCN(CCCCCCCCC)CCN(CCCCCCCCC)CC(=O)N1CCN(C(=O)CN(CCCCCCCCC)CCCCCCC(=O)OCC)CC1 [Compound 53, Ethyl 7-((2-(4-(N-(2-(dinonylamino)ethyl)-N-nonylglycyl)piperazin-1-yl)-2-oxoethyl)(nonyl)amino)heptanoate]
% Dose Remaining 6 hr [4]: 1.35% | % Dose Remaining 24 hr [4]: 0.77% | EE (%) ([1]; Table 1b): 82.8% | PDI ([2]; Table 1b): 0.23 | Size (nm) ([2]; Table 1b): 103.0 nm | AUC (p/s*h) (Luc expression): 9.22E+09 p/s*h

CCCCCCCCCN(CCCCCCCCC)CCN(CCCCCCCCC)CC(=O)N1CCN(C(=O)CN(CCCCCCCCC)CCCCC(=O)OCCCC)CC1 [Compound 55, Butyl 5-((2-(4-(N-(2-(dinonylamino)ethyl)-N-nonylglycyl)piperazin-1-yl)-2-oxoethyl)(nonyl)amino)pentanoate]
% Dose Remaining 6 hr [4]: 2.58% | % Dose Remaining 24 hr [4]: 1.60% | EE (%) ([1]; Table 1b): 95.2% | PDI ([2]; Table 1b): 0.23 | Size (nm) ([2]; Table 1b): 119.5 nm | AUC (p/s*h) (Luc expression): 2.00E+10 p/s*h

CCCCCCCCCCCCN(CCCCCCCCCCCC)CC(=O)N1CCN(C(=O)CN(CCCCCCCCCCCC)CCN(CCCCCCCCC)CCCCCCCCC)CC1 [Compound 9, 2-(Didodecylamino)-1-(4-(N-(2-(dinonylamino)ethyl)-N-dodecylglycyl)piperazin-1-yl)ethan-1-one]
EE (%) [1, 5]: 99.5% | PDI [2, 5]: 0.170 | Size (nm) [2, 6]: 78.0 nm | pKa [3]: 6.76 | response vs control in vivo at 0.5 mg/kg (LDL-c): 87%

CCCCCCCCCCCCN(CCCCCCCCCCCC)CC(=O)N1CCN(C(=O)CN(CCCCCCCCC)CCN(CCCCCCCCC)CCCCCCCCC)CC1 [Compound 8, 2-(Didodecylamino)-1-(4-(N-(2-(dinonylamino)ethyl)-N-nonylglycyl)piperazin-1-yl)ethan-1-one]
EE (%) [1, 5]: 98.5% | PDI [2, 5]: 0.110 | Size (nm) [2, 6]: 83.3 nm | pKa [3]: 6.87 | response vs control in vivo at 0.5 mg/kg (LDL-c): 66%

CCCCCCCCCCCCN(CCN(CCCCCCCCC)CCCCCCCCC)CC(=O)N1CCN(C(=O)CN(CCCCCCCCC)CCCCCCCCC)CC1 [Compound 5, 2-(Dinonylamino)-1-(4-(N-(2-(dinonylamino)ethyl)-N-dodecylglycyl)piperazin-1-yl)ethan-1-one]
EE (%) [1, 5]: 98.1% | PDI [2, 5]: 0.140 | Size (nm) [2, 6]: 85.1 nm | pKa [3]: 7.01 | response vs control in vivo at 0.5 mg/kg (LDL-c): 47%

CCCCCCCCCN(CCCC(=O)OCCCCC)CCN(CCCCCCCCC)CC(=O)N1CCN(C(=O)CN(CCCCCCCCC)CCCC(=O)OCCCCC)CC1 [Compound 71, Pentyl 4-(nonyl(2-(4-(N-nonyl-N-(2-(nonyl(4-oxo-4-(pentyloxy)butyl)amino)ethyl)glycyl)piperazin-1-yl)-2-oxoethyl)amino)butanoate]
% Dose Remaining 6 hr [4]: 12.39% | % Dose Remaining 24 hr [4]: 9.25% | EE (%) ([1]; Table 1b): 91.0% | PDI ([2]; Table 1b): 0.18 | Size (nm) ([2]; Table 1b): 99.9 nm | AUC (p/s*h) (Luc expression): 1.77E+11 p/s*h

CCCCCCCCCCCCN(CCCCCCCCCCCC)CCN(CCCCCCCCC)CC(=O)N1CCN(C(=O)CN(CCCCCCCCCCCC)CCCCCCCCCCCC)CC1 [Compound 10, 2-(Didodecylamino)-1-(4-(N-(2-(didodecylamino)ethyl)-N-nonylglycyl)piperazin-1-yl)ethan-1-one]
EE (%) [1, 5]: 99.2% | PDI [2, 5]: 0.130 | Size (nm) [2, 6]: 81.3 nm | pKa [3]: 6.58 | response vs control in vivo at 0.5 mg/kg (LDL-c): 98%

CCCCCCCCCN(CCCCCCC(=O)OCC)CCC1CCN(C(=O)CN(CCCCCCCCC)CCN(CCCCCCCCC)CCCCCCCCC)CC1 [Compound 58, Ethyl 7-((2-(1-(N-(2-(dinonylamino)ethyl)-N-nonylglycyl)piperidin-4-yl)ethyl)(nonyl)amino)heptanoate]
% Dose Remaining 6 hr [4]: 1.37% | % Dose Remaining 24 hr [4]: 0.61% | EE (%) ([1]; Table 1b): 98.9% | PDI ([2]; Table 1b): 0.23 | Size (nm) ([2]; Table 1b): 112.8 nm | AUC (p/s*h) (Luc expression): 1.38E+11 p/s*h

CCCCCCCCCN(CCCCC(=O)OCCCC)CCC1CCN(C(=O)CN(CCCCCCCCC)CCN(CCCCCCCCC)CCCCCCCCC)CC1 [Compound 60, Butyl 5-((2-(1-(N-(2-(dinonylamino)ethyl)-N-nonylglycyl)piperidin-4-yl)ethyl)(nonyl)amino)pentanoate]
% Dose Remaining 6 hr [4]: 21.18% | % Dose Remaining 24 hr [4]: 15.98% | EE (%) ([1]; Table 1b): 98.8% | PDI ([2]; Table 1b): 0.23 | Size (nm) ([2]; Table 1b): 105.7 nm | AUC (p/s*h) (Luc expression): 2.84E+11 p/s*h

CCCCCCCCCN(CCCCCC(=O)OCCC)CCC1CCN(C(=O)CN(CCCCCCCCC)CCN(CCCCCCCCC)CCCCCCCCC)CC1 [Compound 59, Propyl 6-((2-(1-(N-(2-(dinonylamino)ethyl)-N-nonylglycyl)piperidin-4-yl)ethyl)(nonyl)amino)hexanoate]
% Dose Remaining 6 hr [4]: 6.99% | % Dose Remaining 24 hr [4]: 5.03% | EE (%) ([1]; Table 1b): 98.6% | PDI ([2]; Table 1b): 0.23 | Size (nm) ([2]; Table 1b): 104.7 nm | AUC (p/s*h) (Luc expression): 1.19E+11 p/s*h

CCCCCCCCCN(CCCCCCCCC)CCN(CCCCCCCCC)CC(=O)N1CCN(C(=O)CN(CCCC(=O)OCCCCC)CCCC(=O)OCCCCC)CC1 [Compound 72, Dipentyl 4,4′-((2-(4-(N-(2-(dinonylamino)ethyl)-N-nonylglycyl)piperazin-1-yl)-2-oxoethyl)azanediyl)dibutyrate]
% Dose Remaining 6 hr [4]: 7.06% | % Dose Remaining 24 hr [4]: 6.40% | EE (%) ([1]; Table 1b): 92.7% | PDI ([2]; Table 1b): 0.22 | Size (nm) ([2]; Table 1b): 102.5 nm | AUC (p/s*h) (Luc expression): 6.53E+10 p/s*h

CCCCCCCCCN(CCCCCCCCC)CCN(CCCCCCCCC)CC(=O)N1CCN(C(=O)CN(CCCCCCCCC)CCCOC(=O)CCCCC)CC1 [Compound 56, 3-((2-(4-(N-(2-(Dinonylamino)ethyl)-N-nonylglycyl)piperazin-1-yl)-2-oxoethyl)(nonyl)amino)propyl Hexanoate]
% Dose Remaining 6 hr [4]: 1.21% | % Dose Remaining 24 hr [4]: 0.16% | EE (%) ([1]; Table 1b): 99.0% | PDI ([2]; Table 1b): 0.24 | Size (nm) ([2]; Table 1b): 117.4 nm | AUC (p/s*h) (Luc expression): 1.77E+11 p/s*h

CCCCCCCCCN(CCCOC(=O)CCCCC)CCC1CCN(C(=O)CN(CCCCCCCCC)CCN(CCCCCCCCC)CCCCCCCCC)CC1 [Compound 61, 3-((2-(1-(N-(2-(Dinonylamino)ethyl)-N-nonylglycyl)piperidin-4-yl)ethyl)(nonyl)amino)propyl hexanoate]
% Dose Remaining 6 hr [4]: 1.31% | % Dose Remaining 24 hr [4]: 0.13% | EE (%) ([1]; Table 1b): 99.1% | PDI ([2]; Table 1b): 0.23 | Size (nm) ([2]; Table 1b): 86.8 nm | AUC (p/s*h) (Luc expression): 4.65E+11 p/s*h
